# Laboratory results as given in patent US20250214977A1, “STAT6 INHIBITORS AND USES THEREOF” (Kymera Therapeutics, Inc., priority 2024, published 2025).
# Test system: Phosphorylation of STAT6 in human PBMC (CD19+ B cells)
# Assay: Phosphorylated STAT6 (pSTAT6) flow cytometry assay in human PBMC, IL-4 stimulated
# Format: cell-based
# Settings: compound 1 hour, 1 ng/ml IL-4 for 15 minutes, read-out: STAT6 IL4 pSTAT6 assay in PBMC: Average IC50
# In short: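 Human PBMC preincubated 1 h at 37 °C with compound (9-point 1:3 series, top up to 30 μM), then stimulated with 1 ng/ml IL-4 for 15 min. After fixation, methanol permeabilization and staining, pSTAT6 quantified in CD19+ B cells by flow cytometry; four-parameter fit of inhibition.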
row,SMILES,IC50
1,CN(C)C(=O)c1cc2ccc(C3=CCCN(C(=O)C4(C#N)CC4)C3)cc2[nH]1 [Example I-29],10 to 100 µM
2,CN(C)C(=O)c1cc2ccc(C3=CCCN(C(=O)C4(O)CCCC4)C3)cc2[nH]1 [Example I-32],10 to 100 µM
3,CN(C)C(=O)c1cc2cc(C3=CCCN(C(=O)Cc4ccccc4)C3)ccc2o1 [Example I-283],> 100 µM
4,CN(C)C(=O)c1cc2ccc(C3=CCCN(C(=O)c4cccnc4CS(C)(=O)=O)C3)cc2[nH]1 [Example I-69],> 100 µM
5,CN(C)C(=O)c1cc2ccc(C3=CCCN(C(=O)CCc4ccccn4)C3)cc2[nH]1 [Example I-212],10 to 100 µM
6,CN(C)C(=O)c1cc2cc(C3CCCN(C(=O)CCn4ccnn4)C3)ccc2o1 (stereo not drawn) [Example I-305],> 100 µM
7,CN(C)C(=O)c1cc2cc(C3=CCCN(C(=O)CCc4ccccc4)C3)ccc2o1 [Example I-312],> 100 µM
8,CN(C)C(=O)c1cc2cc(C3=CCCN(C(=O)CCn4ccnn4)C3)cc(C3CCNCC3)c2o1 [Example I-215],10 to 100 µM
9,CN(C)C(=O)c1cc2cc(C3=CCCN(C(=O)Cc4ccncc4)C3)ccc2o1 [Example I-279],> 100 µM
10,CCN[C@H](Cn1ccnn1)C(=O)N1CCC=C(c2ccc3oc(C(=O)N(C)C)cc3c2)C1 [Example I-169],> 100 µM
11,CN(C)C(=O)c1cc2ccc(C3=CCCN(C(=O)CC(C)(C)NCc4ccccc4)C3)cc2[nH]1 [Example I-135],> 100 µM
12,CN(C)C(=O)c1cc2ccc(C3=CCCN(C(=O)C(O)Cc4ccccc4)C3)cc2[nH]1 (stereo not drawn) [Example I-52],10 to 100 µM
13,CN(C)C(=O)c1cc2ccc(C3=CCCN(C(=O)c4cccnc4SCc4ccccc4)C3)cc2[nH]1 [Example I-95],> 100 µM
14,"CN(C)C(=O)c1cc2cc(C3=CCCN(C(=O)[C@@H](N)Cn4ccnn4)C3)ccc2o1 (single isomer, unassigned) [Example I-173]",> 100 µM
15,CN(C)C(=O)c1cc2ccc(C3=CCCN(C(=O)CCc4ccn(C)n4)C3)cc2[nH]1 [Example I-10],> 100 µM
16,CN(C)C(=O)c1cc2cc(C3=CCCN(C(=O)CCc4ccccn4)C3)ccc2[nH]1 [Example I-200],> 100 µM
17,CN(C)C(=O)c1cc2cc(C3=CCCN(C(=O)CCc4cccnn4)C3)ccc2o1 [Example I-220],> 100 µM
18,COC(=O)CCC#Cc1cccc2c1CC(C(=O)N1CCC=C(c3ccc4oc(C(=O)N(C)C)cc4c3)C1)N(C=O)C2 (stereo not drawn) [Example I-175],1 to 10 µM
19,CN(C)C(=O)c1cc2ccc(C3=CCCN(C(=O)c4[nH]nc5c4CS(=O)(=O)C5)C3)cc2[nH]1 [Example I-57],10 to 100 µM
20,O=C(CCn1ccnn1)N1CCC=C(c2ccc3cc(C(=O)N4CCC4)[nH]c3c2)C1 [Example I-125],> 100 µM
21,CN(C)C(=O)c1ccc2c(C3=CCCN(C(=O)CCn4ccnn4)C3)c[nH]c2c1 [Example I-317],> 100 µM
22,CN(C)C(=O)c1cc2ccc(C3=CCCN(C(=O)CCn4ccnn4)C3)cc2s1 [Example I-269],10 to 100 µM

row,SMILES,IC50
1,CN(C)C(=O)c1cc2ccc(C3=CCCN(C(=O)C45CC(C(F)(F)F)(C4)C5)C3)cc2[nH]1 [Example I-55],10 to 100 µM
2,CN(C)C(=O)c1cc2cc(C3=CCCN(C(=O)Cc4cnccn4)C3)ccc2o1 [Example I-246],> 100 µM
3,CN(C)C(=O)c1cc2cc(C3=CCCN(C(=O)Cc4ccc5c(c4)OCCO5)C3)ccc2o1 [Example I-306],> 100 µM
4,CN(C)C(=O)c1cc2ccc(C3=CCCN(C(=O)Cn4cncn4)C3)cc2[nH]1 [Example I-36],10 to 100 µM
5,CN(C)C(=O)c1cc2cc(C3=CCCN(C(=O)CCn4ccnn4)C3)cc(CN3CCCCC3)c2o1 [Example I-185],10 to 100 µM
6,Cc1cc(Cl)c(S(C)(=O)=O)cc1C(=O)N1CCC=C(c2ccc3cc(C(=O)N(C)C)[nH]c3c2)C1 [Example I-74],10 to 100 µM
7,CN(C)C(=O)c1cc2ccc(C3=CCCN(C(=O)CN4CCOC4=O)C3)cc2[nH]1 [Example I-42],10 to 100 µM
8,CN(C)C(=O)c1cc2ccc(C3=CCCN(C(=O)C4(O)CC4)C3)cc2[nH]1 [Example I-27],> 100 µM
9,CN(C)C(=O)c1cc2ccc(C3=CCCN(C(=O)Cc4cccnc4O)C3)cc2[nH]1 [Example I-257],> 100 µM
10,O=C(CCn1ccnn1)N1CCC=C(c2c[nH]c3cc(-n4ccccc4=O)ccc23)C1 [Example I-277],> 100 µM
11,COC(=O)CCC#Cc1cc(C2=CCCN(C(=O)C3Cc4ccccc4CN3C=O)C2)cc2cc(C(=O)N(C)C)oc12 (stereo not drawn) [Example I-184],10 to 100 µM
12,CNS(=O)(=O)c1cccc(C(=O)N2CCC=C(c3ccc4cc(C(=O)N(C)C)[nH]c4c3)C2)c1 [Example I-70],> 100 µM
13,CN(C)C(=O)c1cc2ccc(C3=CCCN(C(=O)c4snnc4C4CC4)C3)cc2[nH]1 [Example I-143],> 100 µM
14,CN(C)C(=O)c1cc2ccc(C3=CCCN(C(=O)C4CC4F)C3)cc2[nH]1 (stereo not drawn) [Example I-322],10 to 100 µM
15,CN(C)C(=O)c1cc2ccc(C3=CCCN(C(=O)C4CCCS4(=O)=O)C3)cc2[nH]1 (stereo not drawn) [Example I-40],10 to 100 µM
16,CC(=O)NC(Cn1ccnn1)C(=O)N1CCC=C(c2ccc3oc(C(=O)N(C)C)cc3c2)C1 (stereo not drawn) [Example I-178],> 100 µM
17,CN(C)C(=O)c1cc2cc(C3=CCCN(C(=O)Cc4ccc5ncccc5c4)C3)ccc2o1 [Example I-273],> 100 µM
18,CN(C)C(=O)c1cc2ccc(C3=CCCN(C(=O)c4cnn(C)c4C(F)(F)F)C3)cc2[nH]1 [Example I-62],10 to 100 µM
19,CN(C)C(=O)c1cc2ccc(C3=CCCN(C(=O)CCn4ccnn4)C3)c(F)c2[nH]1 [Example I-304],< 0.1 µM
20,CN(C)C(=O)c1cc2cc(C3=CCCN(C(=O)Cn4cncn4)C3)ccc2o1 [Example I-315],> 100 µM
21,CNc1ccc(-c2cc(C3=CCCN(C(=O)CCn4ccnn4)C3)cc3[nH]c(C(=O)N(C)C)cc23)c(F)c1 [Example I-115],1 to 10 µM
22,CNc1ccc(-c2cc(C3=CCCN(C(=O)CCn4ccnn4)C3)cc3[nH]c(C(=O)N(C)C)cc23)c(C)c1 [Example I-114],0.1 to 1 µM

row,SMILES,IC50
1,Cc1cn(CCC(=O)N2CCC=C(c3ccc4cc(C(=O)N(C)C)[nH]c4c3)C2)nn1 [Example I-319],> 100 µM
2,Cc1c(S(C)(=O)=O)ccc(C(=O)N2CCC=C(c3ccc4cc(C(=O)N(C)C)[nH]c4c3)C2)c1Cl [Example I-138],> 100 µM
3,CN(C)C(=O)c1cc2cc(C3=CCCN(C(=O)CCc4nc5ccccc5[nH]4)C3)ccc2o1 [Example I-267],> 100 µM
4,CN(C)C(=O)c1cc2cc(C3=CCCN(C(=O)CCc4ccncc4)C3)ccc2o1 [Example I-313],> 100 µM
5,C[C@@H](O)C(=O)N1CCC=C(c2ccc3cc(C(=O)N(C)C)[nH]c3c2)C1 [Example I-24],10 to 100 µM
6,CN(C)C(=O)c1cc2ccc(C3=CCCN(C(=O)[C@H]4Cc5ccccc5CN4)C3)cc2[nH]1 [Example I-59],1 to 10 µM
7,CCOC(=O)N(CC(=O)N1CCC=C(c2ccc3cc(C(=O)N(C)C)[nH]c3c2)C1)Cc1ccco1 [Example I-81],> 100 µM
8,CN(C)C(=O)c1cc2ccc(C3=CCCN(C(=O)CCc4nnco4)C3)cc2[nH]1 [Example I-18],> 100 µM
9,"CN(C)C(=O)c1cc2cc([C@@H]3CN(C(=O)CCn4ccnn4)CC[C@H]3O)ccc2o1 (single isomer, unassigned) [Example I-209]",> 100 µM
10,CN(C)C(=O)c1cc2ccc(C3=CCCN(C(=O)CCN4CCOC4=O)C3)cc2[nH]1 [Example I-134],> 100 µM
11,CN(C)C(=O)c1cc2cc(C3=CCCN(C(=O)Cc4ccc5ncnn5c4)C3)ccc2o1 [Example I-286],> 100 µM
12,"CN(C)C(=O)c1cc2cc([C@H]3CC[C@H](CO)N(C(=O)CCn4ccnn4)C3)ccc2o1 (single isomer, unassigned) [Example I-157]",> 100 µM
13,CN(C)C(=O)c1cc2ccc(C3=CCCN(C(=O)c4cccnc4-c4ccc(F)c(F)c4)C3)cc2[nH]1 [Example I-137],> 100 µM
14,CN(C)C(=O)c1cc2cc(C3=CCCN(C(=O)CCc4cccs4)C3)ccc2o1 [Example I-299],> 100 µM
15,CN(C)C(=O)c1cc2cc(C3CCC(CO)N(C(=O)CCn4ccnn4)C3)ccc2o1 (stereo not drawn) [Example I-155],> 100 µM
16,CN(C)C(=O)c1cc2ccc(C3=CCCN(C(=O)c4ccc(O)c(F)c4)C3)cc2[nH]1 [Example I-48],10 to 100 µM
17,CN(C)C(=O)c1cc2cc(C3=CCCN(C(=O)CC4CCOCC4)C3)ccc2o1 [Example I-255],> 100 µM
18,COC(=O)C1CCC(c2ccc3oc(C(=O)N(C)C)cc3c2)CN1C(=O)CCn1ccnn1 (stereo not drawn) [Example I-150],> 100 µM
19,CN(C)C(=O)c1cc2cc(C3=CCCN(C(=O)C4Cc5ccccc5CN4C=O)C3)ccc2[nH]1 (stereo not drawn) [Example I-201],> 100 µM
20,CN(C)C(=O)c1cc2ccc(C3=CCCN(C(=O)CNC(=O)c4cccc(C(F)(F)F)c4)C3)cc2[nH]1 [Example I-101],> 100 µM
21,COC(=O)C1CCC(c2ccc3oc(C(=O)N(C)C)cc3c2)CN1C(=O)CCn1ccnn1 (stereo not drawn) [Example I-149],> 100 µM
22,CN(C)C(=O)c1cc2ncc(C3=CCCN(C(=O)CCn4ccnn4)C3)cc2[nH]1 [Example I-194],> 100 µM
